# The source made the active and inactive calls. No cut-off for these calls is given here. Residues, ends and D or L forms follow the SMILES beside them. *: point of attachment. OBn = c1ccc(CO*)cc1
# How the values were obtained:
# Mus musculus [1] = test: Toxicity in mouse S180 cells allografted ICR mouse assessed as kidney weight at 8.9 mg/kg, ip qd for 7 days relative to control; assay type: organism-based, CCRF S-180; design: dose 8.9 mg/kg, route intraperitoneal; settings: in vivo, 168 h
# CCRF S-180 [2] = test: Antiproliferative activity against mouse S180 cells after 48 hrs by MTT assay; assay type: functional, cell-based; settings: CCRF S-180, 48 h
# CCRF S-180 [3] = test: Antitumor activity against mouse S180 cells allografted in ICR mouse assessed as tumor growth inhibition at 8.9 mg/kg, ip qd for 7 days relative to control; assay type: functional; settings: CCRF S-180, ip, 168 h, route intraperitoneal, read-out: TGI
# Mus musculus [4] = test: Toxicity in ICR mouse assessed as changes in organs up to 500 mg/kg, ip after 7 days by necropsy analysis; assay type: organism-based; design: dose 500 mg/kg, route intraperitoneal; settings: in vivo, 168 h
# Mus musculus [5] = test: Toxicity in mouse S180 cells allografted ICR mouse assessed as increase of body weight at 8.9 mg/kg, ip qd for 7 days relative to control; assay type: organism-based, CCRF S-180; design: dose 8.9 mg/kg, route intraperitoneal; settings: in vivo, 168 h
# K562 = test: Antiproliferative activity against human K562 cells after 48 hrs by MTT assay; assay type: functional, cell-based; settings: K562, 48 h
# Mus musculus [6] = test: Neurotoxicity in ICR mouse assessed as neurotoxic behavior up to 500 mg/kg, ip after 7 days; assay type: toxicity, organism-based; design: dose 500 mg/kg, route intraperitoneal; settings: in vivo, 168 h
# HepG2 = test: Antiproliferative activity against human HepG2 cells after 48 hrs by MTT assay; assay type: functional, cell-based; settings: HepG2, 48 h
# Mus musculus [7] = test: Toxicity in mouse S180 cells allografted ICR mouse assessed as spleen index at 8.9 mg/kg, ip qd for 7 days relative to control; assay type: organism-based, CCRF S-180; design: dose 8.9 mg/kg, route intraperitoneal; settings: in vivo, 168 h
# B16 = test: Antiproliferative activity against mouse B16 cells after 48 hrs by MTT assay; assay type: functional, cell-based; settings: B16, 48 h
# Mus musculus [8] = test: Toxicity in mouse S180 cells allografted ICR mouse assessed as brain weight at 8.9 mg/kg, ip qd for 7 days relative to control; assay type: organism-based, CCRF S-180; design: dose 8.9 mg/kg, route intraperitoneal; settings: in vivo, 168 h
# H22 = test: Antiproliferative activity against mouse H22 cells after 48 hrs by MTT assay; assay type: functional, cell-based; settings: H22, 48 h
# Mus musculus [9] = test: Toxicity in ICR mouse assessed as mortality up to 500 mg/kg, ip after 7 days; assay type: organism-based; design: dose 500 mg/kg, route intraperitoneal; settings: in vivo, 168 h
# [10] = Acute toxicity in ip dosed ICR mouse after 7 days; assay type: organism-based; settings: in vivo
# Mus musculus [11] = test: Toxicity in mouse S180 cells allografted ICR mouse assessed as liver weight at 8.9 mg/kg, ip qd for 7 days relative to control; assay type: organism-based, CCRF S-180; design: dose 8.9 mg/kg, route intraperitoneal; settings: in vivo, 168 h
# CCRF S-180 [12] = test: Antitumor activity against mouse S180 cells allografted in ICR mouse assessed as tumor growth inhibition at 0.089 mg/kg, ip qd for 7 days relative to control; assay type: functional; settings: CCRF S-180, ip, 168 h, route intraperitoneal, read-out: TGI
# Calf thymus DNA [13] = test: Binding affinity to 10 to 70 uM of calf thymus DNA assessed as decrease in fluorescence intensity at 50 uM by fluorescence spectra analysis; assay type: nucleic-acid assay; settings: Bos taurus
# Calf thymus DNA [14] = test: Binding affinity to calf thymus DNA assessed as melting temperature at 10 uM; assay type: nucleic-acid assay; settings: Bos taurus
# Calf thymus DNA [15] = test: Binding affinity to 70 uM of calf thymus DNA assessed as decrease in fluorescence intensity at 50 uM by fluorescence spectra analysis; assay type: nucleic-acid assay; design: scale not given: the % may be the effect or the level left; settings: Bos taurus
# Calf thymus DNA [16] = test: Binding affinity to calf thymus DNA assessed as increase of DNA […] at compound-DNA ratio up to 0.36; assay type: nucleic-acid assay; settings: Bos taurus
# CCRF S-180 [17] = test: Antitumor activity against mouse S180 cells allografted in ICR mouse assessed as tumor growth inhibition at 0.89 mg/kg, ip qd for 7 days relative to control; assay type: functional; settings: CCRF S-180, ip, 168 h, route intraperitoneal, read-out: TGI
# CCRF S-180 [18] = test: Antitumor activity against mouse S180 cells allografted in ip dosed ICR mouse assessed as tumor growth inhibition administered qd for 7 days relative to control; assay type: functional, organism-based
Structure (SMILES),Activity (Mus musculus [1]),IC50 (CCRF S-180 [2]) [µM],inhibition in vivo at 8.9 mg/kg (CCRF S-180 [3]) [%],Activity (Mus musculus [4]),Activity (Mus musculus [5]),IC50 (K562) [µM],Activity (Mus musculus [6]),IC50 (HepG2) [µM],Activity (Mus musculus [7]),IC50 (B16) [µM],Activity (Mus musculus [8]),IC50 (H22) [µM],Activity (Mus musculus [9]),LD50 at 168 h [10] [mg/kg],Activity (Mus musculus [11]),further results
N=C(N)NCCC[C@H](N)C(=O)N[C@@H](Cc1c[nH]c2ccccc12)C(=O)N[C@@H](Cc1c[nH]c2ccccc12)C(=O)OCc1ccccc1 (H-Arg-Trp-Trp-OBn),Non-toxic,29.4,45.1,Non-toxic,Toxic,27.2,Non-toxic,38.1,Non-toxic,37.4,Non-toxic,27.5,Non-toxic,> 500,Non-toxic,
NC(=O)C[C@H](N)C(=O)N[C@@H](Cc1c[nH]c2ccccc12)C(=O)N[C@@H](Cc1c[nH]c2ccccc12)C(=O)OCc1ccccc1 (H-Asn-Trp-Trp-OBn),Non-toxic,13.5,85.1,Non-toxic,Toxic,11,Non-toxic,11.9,Non-toxic,13.8,Non-toxic,11,Non-toxic,> 500,Non-toxic,inhibition in vivo at 0.089 mg/kg (CCRF S-180 [12]): 26.6%; Activity (Calf thymus DNA [13]): Active; Tm (Calf thymus DNA [14]): 20.8 °C; Activity (Calf thymus DNA [15]): 35.3%; Activity (Calf thymus DNA [16]): Active; inhibition in vivo at 0.89 mg/kg (CCRF S-180 [17]): 46.7%; TGI (CCRF S-180 [18]): Dose-dependent effect
N[C@@H](CS)C(=O)N[C@@H](Cc1c[nH]c2ccccc12)C(=O)N[C@@H](Cc1c[nH]c2ccccc12)C(=O)OCc1ccccc1 (H-Cys-Trp-Trp-OBn),Non-toxic,26.2,48.4,Non-toxic,Toxic,20.6,Non-toxic,35,Non-toxic,32.8,Non-toxic,24.7,Non-toxic,> 500,Non-toxic,
NC(=O)CC[C@H](N)C(=O)N[C@@H](Cc1c[nH]c2ccccc12)C(=O)N[C@@H](Cc1c[nH]c2ccccc12)C(=O)OCc1ccccc1 (H-Gln-Trp-Trp-OBn),Non-toxic,27.6,43,Non-toxic,Toxic,24.6,Non-toxic,26.2,Non-toxic,31.8,Non-toxic,25.1,Non-toxic,> 500,Non-toxic,
N[C@@H](CCC(=O)O)C(=O)N[C@@H](Cc1c[nH]c2ccccc12)C(=O)N[C@@H](Cc1c[nH]c2ccccc12)C(=O)OCc1ccccc1 (H-Glu-Trp-Trp-OBn),Non-toxic,16.6,78.8,Non-toxic,Toxic,14.3,Non-toxic,22.3,Non-toxic,21.4,Non-toxic,14.7,Non-toxic,> 500,Non-toxic,
CC[C@H](C)[C@H](N)C(=O)N[C@@H](Cc1c[nH]c2ccccc12)C(=O)N[C@@H](Cc1c[nH]c2ccccc12)C(=O)OCc1ccccc1 (H-Ile-Trp-Trp-OBn),Non-toxic,15.1,80.1,Non-toxic,Toxic,16.2,Non-toxic,15.1,Non-toxic,17.2,Non-toxic,16.1,Non-toxic,> 500,Non-toxic,
CSCC[C@H](N)C(=O)N[C@@H](Cc1c[nH]c2ccccc12)C(=O)N[C@@H](Cc1c[nH]c2ccccc12)C(=O)OCc1ccccc1 (H-Met-Trp-Trp-OBn),Non-toxic,19.8,61.5,Non-toxic,Toxic,17,Non-toxic,24.3,Non-toxic,25.2,Non-toxic,17.5,Non-toxic,> 500,Non-toxic,
N[C@@H](Cc1ccccc1)C(=O)N[C@@H](Cc1c[nH]c2ccccc12)C(=O)N[C@@H](Cc1c[nH]c2ccccc12)C(=O)OCc1ccccc1 (H-Phe-Trp-Trp-OBn),Non-toxic,34,24.7,Non-toxic,Toxic,43.7,Non-toxic,41.2,Non-toxic,34,Non-toxic,37.6,Non-toxic,> 500,Non-toxic,
N[C@@H](CO)C(=O)N[C@@H](Cc1c[nH]c2ccccc12)C(=O)N[C@@H](Cc1c[nH]c2ccccc12)C(=O)OCc1ccccc1 (H-Ser-Trp-Trp-OBn),Non-toxic,26.3,48.2,Non-toxic,Toxic,25.6,Non-toxic,25.9,Non-toxic,48.4,Non-toxic,25.2,Non-toxic,> 500,Non-toxic,
N[C@@H](Cc1c[nH]c2ccccc12)C(=O)N[C@@H](Cc1c[nH]c2ccccc12)C(=O)N[C@@H](Cc1c[nH]c2ccccc12)C(=O)OCc1ccccc1 (H-Trp-Trp-Trp-OBn),Non-toxic,142,-19.1,,Toxic,164,,163,Non-toxic,162,Non-toxic,106,,,Non-toxic,
N[C@@H](Cc1ccc(O)cc1)C(=O)N[C@@H](Cc1c[nH]c2ccccc12)C(=O)N[C@@H](Cc1c[nH]c2ccccc12)C(=O)OCc1ccccc1 (H-Tyr-Trp-Trp-OBn),Non-toxic,22.9,53.4,Non-toxic,Toxic,21.3,Non-toxic,23.6,Non-toxic,24.8,Non-toxic,23,Non-toxic,> 500,Non-toxic,
CC(C)[C@H](N)C(=O)N[C@@H](Cc1c[nH]c2ccccc12)C(=O)N[C@@H](Cc1c[nH]c2ccccc12)C(=O)OCc1ccccc1 (H-Val-Trp-Trp-OBn),Non-toxic,36.1,33.5,Non-toxic,Toxic,40.4,Non-toxic,37.4,Non-toxic,50.1,Non-toxic,36,Non-toxic,> 500,Non-toxic,
Nc1ccn([C@@H]2O[C@H](CO)[C@@H](O)[C@@H]2O)c(=O)n1 [CYTARABINE],,40.3,31.9,,,43.6,,38.1,,49.2,,37.8,,,,inhibition in vivo at 0.089 mg/kg (CCRF S-180 [12]): 7.86%; inhibition in vivo at 0.89 mg/kg (CCRF S-180 [17]): 20.6%
